The source made the active and inactive calls. How the calls were made is not given here.

Among the data in PubChem BioAssay AID1259407 (Chemical Carcinogenesis Research Information System (CCRIS), 2018) are mutagenic call values, retold here.

This data set has as its system CCRIS mutagenicity, Ames/micronucleus/aberration tests. Description: CCRIS mutagenicity studies.
[1] abbreviates: Test System: AMES SALMONELLA TYPHIMURIUM, Strain/Indicator: TA98, Metabolic Activation: NONE, Method: PREINCUBATION
Setting [2] is: Test System: AMES SALMONELLA TYPHIMURIUM, Strain/Indicator: TA100, Metabolic Activation: NONE, Method: PREINCUBATION

On to `Clc1ccccc1C(c1ccccc1)C(c1ccccc1)c1ccccc1Cl` (stereo unspecified), for which the mutagenic call is “inactive; negative” (Test System: Mouse lymphoma, Strain/Indicator: L5178Y (tk+/tk-), Metabolic Activation: None, Method: Suspension/plate) and “active; equivocal (previous evaluation positive)” (Test System: Mouse lymphoma, Strain/Indicator: L5178Y (tk+/tk-), Metabolic Activation: Rat, Liver, S-9, Aroclor 1254, Method: Suspension/plate).
Regarding `Cc1c(N)cccc1N=Nc1cccc(N)c1C`, the mutagenic call under setting [1] was “inactive; negative”; the mutagenic call (Test System: AMES SALMONELLA TYPHIMURIUM, Strain/Indicator: TA98, Metabolic Activation: RAT, LIVER, S-9, PHENOBARBITAL AND 5,6-BENZOFLAVONE, Method: PREINCUBATION) is “active; positive”; the mutagenic call under setting [2] was “inactive; negative”; the mutagenic call (Test System: AMES SALMONELLA TYPHIMURIUM, Strain/Indicator: TA100, Metabolic Activation: RAT, LIVER, S-9, PHENOBARBITAL AND 5,6-BENZOFLAVONE, Method: PREINCUBATION) was “active; positive”.
`C1=Cc2c3ccccc3cc3c2c1cc1ccccc13`: the mutagenic call runs as follows: (Test System: CHINESE HAMSTER OVARY, Strain/Indicator: V-79/6-THIOGUANINE, Metabolic Activation: RAT, LIVER, S-9, AROCLOR 1254, Method: FLASK ASSAY) “active; positive”; (Test System: CHINESE HAMSTER V-79, Strain/Indicator: V-79/6-THIOGUANINE, Metabolic Activation: RAT, LIVER, S-9, AROCLOR 1254, Method: SUSPENSION/PLATE) “active; positive”.
`NC(N)=S`: the mutagenic call (Test System: AMES SALMONELLA TYPHIMURIUM, Strain/Indicator: TA97, Metabolic Activation: HAMSTER, LIVER, S-9, AROCLOR 1254 (10 OR 30%), Method: PREINCUBATION) was “inactive; negative”; the mutagenic call (Test System: AMES SALMONELLA TYPHIMURIUM, Strain/Indicator: TA97, Metabolic Activation: NONE, Method: PREINCUBATION) is “inactive; negative”; the mutagenic call (Test System: AMES SALMONELLA TYPHIMURIUM, Strain/Indicator: TA97, Metabolic Activation: NONE, Method: STANDARD PLATE) was “inactive; negative”; the mutagenic call (Test System: AMES SALMONELLA TYPHIMURIUM, Strain/Indicator: TA97, Metabolic Activation: RAT, LIVER, S-9, AROCLOR 1254 (10 OR 30%), Method: PREINCUBATION) was “inactive; negative”; the mutagenic call (Test System: AMES SALMONELLA TYPHIMURIUM, Strain/Indicator: TA97, Metabolic Activation: RAT, LIVER, S-9, AROCLOR 1254, Method: STANDARD PLATE) is “inactive; negative”; the mutagenic call (Test System: AMES SALMONELLA TYPHIMURIUM, Strain/Indicator: TA98, Metabolic Activation: HAMSTER, LIVER, S-9, AROCLOR 1254 (10 OR 30%), Method: PREINCUBATION) was “inactive; negative”. Further, the mutagenic call is “inactive; negative” under setting [1]; “inactive; negative” (Test System: AMES SALMONELLA TYPHIMURIUM, Strain/Indicator: TA98, Metabolic Activation: NONE, Method: STANDARD PLATE); “inactive; negative” (Test System: AMES SALMONELLA TYPHIMURIUM, Strain/Indicator: TA98, Metabolic Activation: RAT LIVER S-9, PHENOBARBITAL AND BETA-NAPHTHOFLAVONE, Method: PREINCUBATION); “inactive; negative” (Test System: AMES SALMONELLA TYPHIMURIUM, Strain/Indicator: TA98, Metabolic Activation: RAT, LIVER, S-9, AROCLOR 1254 (10 OR 30%), Method: PREINCUBATION); “inactive; negative” (Test System: AMES SALMONELLA TYPHIMURIUM, Strain/Indicator: TA98, Metabolic Activation: RAT, LIVER, S-9, AROCLOR 1254, Method: STANDARD PLATE); “inactive; negative” (Test System: AMES SALMONELLA TYPHIMURIUM, Strain/Indicator: TA100, Metabolic Activation: HAMSTER, LIVER, S-9, AROCLOR 1254 (10 OR 30%), Method: PREINCUBATION). In addition, the mutagenic call is, setting by setting: under setting [2], “inactive; negative”; (Test System: AMES SALMONELLA TYPHIMURIUM, Strain/Indicator: TA100, Metabolic Activation: NONE, Method: STANDARD PLATE) “inactive; negative”; (Test System: AMES SALMONELLA TYPHIMURIUM, Strain/Indicator: TA100, Metabolic Activation: RAT LIVER S-9, PHENOBARBITAL AND BETA-NAPHTHOFLAVONE, Method: PREINCUBATION) “inactive; negative”; (Test System: AMES SALMONELLA TYPHIMURIUM, Strain/Indicator: TA100, Metabolic Activation: RAT, LIVER, S-9, AROCLOR 1254 (10 OR 30%), Method: PREINCUBATION) “inactive; negative”; (Test System: AMES SALMONELLA TYPHIMURIUM, Strain/Indicator: TA100, Metabolic Activation: RAT, LIVER, S-9, AROCLOR 1254, Method: STANDARD PLATE) “inactive; negative”; (Test System: AMES SALMONELLA TYPHIMURIUM, Strain/Indicator: TA1535, Metabolic Activation: HAMSTER, LIVER, S-9, AROCLOR 1254 (10 OR 30%), Method: PREINCUBATION) “inactive; negative”. Also, the mutagenic call is “inactive; negative” (Test System: AMES SALMONELLA TYPHIMURIUM, Strain/Indicator: TA1535, Metabolic Activation: NONE, Method: PREINCUBATION); “inactive; negative” (Test System: AMES SALMONELLA TYPHIMURIUM, Strain/Indicator: TA1535, Metabolic Activation: RAT LIVER S-9, PHENOBARBITAL AND BETA-NAPHTHOFLAVONE, Method: PREINCUBATION); “inactive; negative” (Test System: AMES SALMONELLA TYPHIMURIUM, Strain/Indicator: TA1535, Metabolic Activation: RAT, LIVER, S-9, AROCLOR 1254 (10 OR 30%), Method: PREINCUBATION); “inactive; negative” (Test System: AMES SALMONELLA TYPHIMURIUM, Strain/Indicator: TA1537, Metabolic Activation: NONE, Method: PREINCUBATION); “inactive; negative” (Test System: AMES SALMONELLA TYPHIMURIUM, Strain/Indicator: TA1537, Metabolic Activation: RAT LIVER S-9, PHENOBARBITAL AND BETA-NAPHTHOFLAVONE, Method: PREINCUBATION); “inactive; negative” (Test System: E. COLI, Strain/Indicator: WP2 UVRA, Metabolic Activation: HAMSTER, LIVER, S-9, AROCLOR 1254, Method: STANDARD PLATE). Moreover, the mutagenic call is, setting by setting: (Test System: E. COLI, Strain/Indicator: WP2 UVRA, Metabolic Activation: HAMSTER, LIVER, S-9, Method: STANDARD PLATE) “inactive; negative”; (Test System: E. COLI, Strain/Indicator: WP2 UVRA, Metabolic Activation: MOUSE, LIVER, S-9, AROCLOR 1254, Method: STANDARD PLATE) “inactive; negative”; (Test System: E. COLI, Strain/Indicator: WP2 UVRA, Metabolic Activation: MOUSE, LIVER, S-9, Method: STANDARD PLATE) “inactive; negative”; (Test System: E. COLI, Strain/Indicator: WP2 UVRA, Metabolic Activation: NONE, Method: STANDARD PLATE) “inactive; negative”; (Test System: E. COLI, Strain/Indicator: WP2 UVRA, Metabolic Activation: RAT, LIVER, S-9, AROCLOR 1254, Method: STANDARD PLATE) “inactive; negative”; (Test System: E. COLI, Strain/Indicator: WP2 UVRA, Metabolic Activation: RAT, LIVER, S-9, Method: STANDARD PLATE) “inactive; negative”. In addition, the mutagenic call by setting is: (Test System: E.COLI, Strain/Indicator: WP2UVRA/PKM101, Metabolic Activation: NONE, Method: PREINCUBATION) “inactive; negative”; (Test System: E.COLI, Strain/Indicator: WP2UVRA/PKM101, Metabolic Activation: RAT LIVER S-9, PHENOBARBITAL AND BETA-NAPHTHOFLAVONE, Method: PREINCUBATION) “inactive; negative”; (Test System: MOUSE LYMPHOMA, Strain/Indicator: L5178Y (TK+/TK-), Metabolic Activation: NONE, Method: SUSPENSION/PLATE) “inactive; negative”.
`COc1ccc(O)c2c(=O)c3c(OC)cc4c(c3oc12)[C@@H]1C=CO[C@@H]1O4`: the mutagenic call is “inactive; negative” (Test System: AMES SALMONELLA TYPHIMURIUM, Strain/Indicator: TA98, Metabolic Activation: RAT, LIVER, S-9, PHENOBARBITAL, Method: STANDARD PLATE) and “active; positive” (Test System: AMES SALMONELLA TYPHIMURIUM, Strain/Indicator: TA100, Metabolic Activation: RAT, LIVER, S-9, PHENOBARBITAL, Method: STANDARD PLATE).
Consider `COC(=O)Nc1nc2ccc(S(=O)c3ccccc3)cc2[nH]1` (stereo unspecified), for which the mutagenic call reads like this: (End Point: In vivo chromosomal aberrations, Test System: Bone marrow cells, Species: Mouse, Strain/Sex: Swiss /Female, Route: Oral) “active; positive (structural changes and ploidy)”; (End Point: In vivo chromosomal aberrations, Test System: Bone marrow cells, Species: Mouse, Strain/Sex: Swiss /Male, Route: Oral) “active; positive (structural changes and ploidy)”; (End Point: In vivo chromosomal aberrations, Test System: Spermatocytes, Species: Mouse, Strain/Sex: Swiss /Male, Route: Oral) “active; positive (ploidy)”.
